Reference: patent publication EP2250163B1, “HEPATITIS C VIRUS INHIBITORS” (Bristol-Myers Squibb Company, priority 2008, dated 2009)

Tested on: HCV 1b-377-neo replicon cells
Experiment: HCV replicon assay, wild-type cells
Format: cell-based
Details: Hepatitis C virus, against the HCV 1b genotype, read-out: EC50 Range
Protocol: An HCV Replion assay was utilized in the present disclosure, and was prepared, conducted and validated as described in commonly owned PCT/US2006/022197 and in O'Boyle et al. Antimicrob Agents Chemother. 2005 Apr;49(4):1346-53.
HCV 1b-377-neo replicon cells were used to test the currently described compound series as well as cells resistant to compound A due to a Y2065H mutation in NS5A (described in application PCT/US2006/022197). The compounds tested were determined to have more than 10-fold less inhibitory activity on cells resistant to compound A than wild-type cells indicating a related mechanism of action between the two compound series. Thus, the compounds of the present disclosure can be effective to inhibit the function of the HCV NS5A protein and are understood to be as effective in combinations as previously described in application PCT/US2006/022197 and commonly owned WO/04014852. Further, the compounds of the present disclosure can be effective against the HCV 1b genotype. It should also be understood that the compounds of the present disclosure can inhibit multiple genotypes of HCV. […] In one embodiment compounds of the present disclosure are active against the 1a, 1b, 2a, 2b, 3a, 4a, and 5a genotypes.

Row | SMILES | EC50 [nM]
1 | COCC[C@H](NC(=O)OC)C(=O)N[C@H](c1nc(-c2ccc(-c3ccc(-c4c[nH]c([C@@H]5CCCN5C(=O)[C@H](CCOC)NC(=O)OC)n4)cc3)cc2)c[nH]1)C(C)C [Example R20, methyl ((1S)-3-methoxy-1-(((2S)-2-(4-(4'-(2-((1S)-1-((N-(methoxycarbonyl)-O-methyl-L-homoseryl)amino)-2-methylpropyl)-1H-imidazol-4-yl)-4-biphenylyl)-1H-imidazol-2-yl)-1-pyrrolidinyl)carbonyl)propyl)carbamate] | 0.001 to 0.999
2 | COC(=O)N[C@H](C(=O)Nc1ncc(-c2ccc(-c3ccc(-c4cnc([C@@H]5CCCN5C(=O)[C@@H](NC(=O)OC)C(C)C)[nH]4)cc3)cc2)[nH]1)C(C)C [Example R33, (S)-2-methoxycarbonylamino-N-(5-(4'-(2-((S)-1-((S)-2-methoxycarbonylamino-3-methylbutanoyl)pyrrolidin-2-yl)-1H-imidazol-5-yl)biphenyl-4-yl)-1H-imidazol-2-yl)-3-methylbutanamide] | 1 to 99
